Measurements taken from PubChem BioAssay AID463199 (Broad Institute, 2010).
Calls of active or inactive are those of the source.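 The calls were made as follows: active = AC50, the dose giving half-maximal effect, exceeds a fixed cutoff for a compound that rescues yeast growth under heat; inactive = the rest, inconclusive results apart.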

System: S. cerevisiae Burl-1 ts mutant growth, BacTiter-Glo, 38.5C 24 h
Assay: growth induction of Burl-1 ts yeast mutant, dose response, counter-screen for SUMOylation pathway inhibitor project, whole organism, S. cerevisiae, luminescence (AID 463199)

**Q.** For `CS(=O)(=O)N1CCC(Oc2ccccc2C(=O)N2CCNC(=O)C2)CC1`, which AC50 is on record?
**A.** The AC50 was > 42 µM (inactive).

**Q.** With `c1ccc(OCCCc2nc(-c3cccnc3)no2)cc1` as the molecule, how does the AC50 read?
**A.** Its AC50 is > 42 µM (inactive).

**Q.** `O=C1CCCN1CCC1CCN(C2CC(=O)N(c3ccc(Cl)cc3)C2=O)CC1` (configuration not stated) was tested. Which AC50 did it give?
**A.** Its AC50 is > 42 µM (inactive).

**Q.** For `CCOCCCNC(=O)C(c1ccc(OC)cc1)N(Cc1ccc2c(c1)OCO2)C(=O)CNC(C)=O` (configuration not stated), which AC50 is on record?
**A.** Its AC50 is > 42 µM (inactive).

**Q.** `COc1ccc(C2=Nn3c(nnc3-c3ccco3)SC2)cc1` was tested. Which AC50 did it give?
**A.** Its AC50 is > 42 µM (inactive).

**Q.** How did the AC50 turn out when `CCNC(=O)NC(C(=O)OC)C12CC3CC(CC(C3)C1)C2` (configuration not stated) was run?
**A.** Its AC50 is > 42 µM (inactive).

**Q.** `Cc1nc(CCNC(=O)c2ccccc2)cs1` was tested. Which AC50 did it give?
**A.** The AC50 was > 42 µM (inactive).

**Q.** For `Cc1ccc(C(=O)O)cc1[N+](=O)[O-]`, which AC50 is on record?
**A.** The AC50 was > 42 µM (inactive).

**Q.** `Cc1sc2nc(CN3CCCC3)nc(NCc3ccncc3)c2c1C` was tested. Which AC50 did it give?
**A.** The AC50 was > 42 µM (inactive).

**Q.** `CC(C)(C)c1ccc(-c2nc(C=O)c3ccccn23)cc1` was tested. Which AC50 did it give?
**A.** Its AC50 is > 42 µM (inactive).

**Q.** Which AC50 does the source give for `COCCCNC(=O)c1cc2cc([N+](=O)[O-])cc(OC)c2oc1=O` here?
**A.** The AC50 was > 42 µM (inactive).

**Q.** For `O=C(O)C1C(C(=O)O)C2(Cl)C(Cl)=C(Cl)C1(Cl)C2(Cl)Cl` (configuration not stated), which AC50 is on record?
**A.** Its AC50 is > 42 µM (inactive).

**Q.** How did the AC50 turn out when `O=c1cc(C(F)(F)F)c2sc(N3CCCCC3)nc2[nH]1` was run?
**A.** The AC50 was > 42 µM (inactive).

**Q.** `N#Cc1cc2c(nc1SCc1cccnc1)CCC2` was tested. Which AC50 did it give?
**A.** Its AC50 is > 42 µM (inactive).

**Q.** How did the AC50 turn out when `CC(C)CCCN1CCN=C1Nc1ccccc1` was run?
**A.** The AC50 was > 42 µM (inactive).

**Q.** For `Cc1cccc(NC(=S)NCc2ccco2)c1C`, which AC50 is on record?
**A.** The AC50 was > 42 µM (inactive).

**Q.** `O=C(COC(=O)CSc1ccc([N+](=O)[O-])cc1)NC1CCCCCCC1` was tested. Which AC50 did it give?
**A.** Its AC50 is > 42 µM (inactive).

**Q.** `CCn1c(-c2ccccc2)c(C(=O)CC#N)c2ccccc21` was tested. Which AC50 did it give?
**A.** Its AC50 is > 42 µM (inactive).

**Q.** How did the AC50 turn out when `O=S(=O)(Cc1cc(-c2ccccc2)no1)c1ccccc1` was run?
**A.** The AC50 was > 42 µM (inactive).

**Q.** Which AC50 does the source give for `CCc1ccccc1NC1c2ccccc2C(=O)N1c1cccnc1` (configuration not stated) here?
**A.** The AC50 was > 42 µM (inactive).

**Q.** Which AC50 does the source give for `CCCCC1=CC2=CC(=O)C(C)(OC(=O)CC)C(=O)C2=CN1CCCOC(C)C` (configuration not stated) here?
**A.** The AC50 was > 42 µM (inactive).

**Q.** `Cc1nc2ccccc2n(CC(=O)Nc2cc(Cl)cc(Cl)c2)c1=O` was tested. Which AC50 did it give?
**A.** The AC50 was > 42 µM (inactive).

**Q.** `CN(C)CCNC(=O)c1scc2c1CCCC2` was tested. Which AC50 did it give?
**A.** The AC50 was > 42 µM (inactive).

**Q.** With `COc1ccccc1CNC(=O)C1CCC(=O)N1C(C)C` (configuration not stated) as the molecule, how does the AC50 read?
**A.** The AC50 was > 42 µM (inactive).

**Q.** For `O=C(CCCn1cnc([N+](=O)[O-])n1)Nc1cccc2ccccc12`, which AC50 is on record?
**A.** The AC50 was > 42 µM (inactive).

**Q.** How did the AC50 turn out when `COc1ccccc1CNc1ncnc2c1nnn2Cc1ccccc1` was run?
**A.** The AC50 was > 42 µM (inactive).

**Q.** How did the AC50 turn out when `COc1cccc(NC(=O)CN2CCN(c3ccccc3F)CC2)c1` was run?
**A.** Its AC50 is > 42 µM (inactive).

**Q.** Which AC50 does the source give for `Cc1cccc(-[n+]2c(-c3cccc(Br)c3)[nH]c3nc4ccccc4nc32)c1` here?
**A.** Its AC50 is > 42 µM (inactive).

**Q.** `COc1cc(C(=O)NCCC2=CCCCC2)cc(OC)c1OC` was tested. Which AC50 did it give?
**A.** Its AC50 is > 42 µM (inactive).

**Q.** How did the AC50 turn out when `COc1cccc(CN(C)CC2CCCN(CCc3ccc(Cl)cc3)C2)c1OC` (configuration not stated) was run?
**A.** The AC50 was > 42 µM (inactive).

**Q.** How did the AC50 turn out when `CCOC(=O)C1C(=O)NC(SCC(=O)Nc2nccs2)=C(C#N)C1c1ccccc1OCC` (configuration not stated) was run?
**A.** The AC50 was > 42 µM (inactive).

**Q.** `CN(CC(=O)Nc1ccccc1Sc1ccccc1)Cc1nc2ccccc2c(=O)[nH]1` was tested. Which AC50 did it give?
**A.** The AC50 was > 42 µM (inactive).

**Q.** `CCOc1cc(NC(=O)c2cccs2)c(OCC)cc1NC(=O)CCC(=O)NCCN1CCOCC1` was tested. Which AC50 did it give?
**A.** Its AC50 is > 42 µM (inactive).

**Q.** Which AC50 does the source give for `CCN(CC(=O)NCc1ccc(Cl)cc1)C(=O)/C=C/c1ccc(C#N)cc1` here?
**A.** Its AC50 is > 42 µM (inactive).

**Q.** How did the AC50 turn out when `Cc1ccc(CNC(=O)c2ccc(N3CCC4(CC3)CC(c3ccccc3)=NO4)c(NC(=O)c3cccc(C)c3)c2)cc1` was run?
**A.** Its AC50 is > 42 µM (inactive).

**Q.** `CCC(=O)Nc1ccc(S(=O)(=O)NCc2ccco2)cc1` was tested. Which AC50 did it give?
**A.** The AC50 was > 42 µM (inactive).

**Q.** How did the AC50 turn out when `O=C(NCc1ccco1)c1ccc(Br)c(S(=O)(=O)N2CCCCC2)c1` was run?
**A.** The AC50 was > 42 µM (inactive).

**Q.** With `CCOC(=O)Cn1c(=O)oc2cc(S(=O)(=O)NC(C)(C)CC)ccc21` as the molecule, how does the AC50 read?
**A.** The AC50 was > 42 µM (inactive).

**Q.** `CCC(=O)c1c[nH]c(C(=O)NCCCn2ccnc2)c1` was tested. Which AC50 did it give?
**A.** Its AC50 is > 42 µM (inactive).

**Q.** Which AC50 does the source give for `C#CCn1c(=NC(=O)CN2C(=O)CCC2=O)sc2cccc(OC)c21` here?
**A.** The AC50 was > 42 µM (inactive).

**Q.** How did the AC50 turn out when `COCc1[nH][nH]c(=O)c1C=Nc1ccc(OC(F)(F)F)cc1` was run?
**A.** Its AC50 is > 42 µM (inactive).

**Q.** For `COC(=O)c1sc2ccccc2c1NC(=O)c1ccc(S(=O)(=O)N2CCCC(C)C2)cc1` (configuration not stated), which AC50 is on record?
**A.** The AC50 was > 42 µM (inactive).

**Q.** Which AC50 does the source give for `CCN(C(=O)COC(=O)c1c(-c2ccccc2)noc1C)c1c(N)n(Cc2ccccc2)c(=O)[nH]c1=O` here?
**A.** Its AC50 is > 42 µM (inactive).

**Q.** How did the AC50 turn out when `O=C(Nc1ccccc1N1CCOCC1)c1cc(Br)c(Br)s1` was run?
**A.** Its AC50 is > 42 µM (inactive).

**Q.** How did the AC50 turn out when `O=C(O)CSc1ncnc2sc(-c3ccccc3)cc12` was run?
**A.** Its AC50 is > 42 µM (inactive).

**Q.** `O=C(CSc1nnc(COc2ccccc2Cl)o1)NC(=O)NC1CCCC1` was tested. Which AC50 did it give?
**A.** The AC50 was > 42 µM (inactive).

**Q.** For `Cc1c(C)c2c(c(C)c1O)CCC(C)(C(=O)O)O2` (configuration not stated), which AC50 is on record?
**A.** The AC50 was > 42 µM (inactive).

**Q.** How did the AC50 turn out when `Cc1cc(C)n(-c2nc3ccccc3nc2N2CCN(C(=O)c3ccccc3)CC2)n1` was run?
**A.** The AC50 was > 42 µM (inactive).

**Q.** Which AC50 does the source give for `COc1ccc2c(c1)[C@H]1[C@H](CO2)[C@H](c2ccccc2)[C@]2(C)C(=O)Nc3cc(F)ccc3C(=O)N12` here?
**A.** The AC50 was > 42 µM (inactive).

**Q.** With `CC1(C)CC(=O)c2cnc(NC(=O)CSc3nc4ccccc4o3)nc2C1` as the molecule, how does the AC50 read?
**A.** The AC50 was > 42 µM (inactive).

**Q.** `Cc1cc(C)c2c(=O)[nH]cnc2n1` was tested. Which AC50 did it give?
**A.** The AC50 was > 42 µM (inactive).

**Q.** With `CN(CC(=O)N1CCc2[nH]c3ccc(F)cc3c2C1)CC1OCCO1` as the molecule, how does the AC50 read?
**A.** Its AC50 is > 42 µM (inactive).

**Q.** For `CC1=C(C(N)=O)C(c2ccccn2)n2nc(SCc3ccccc3Cl)nc2N1` (configuration not stated), which AC50 is on record?
**A.** The AC50 was > 42 µM (inactive).

**Q.** For `Cc1ccc(C(=O)NC(Cc2c[nH]c3ccccc23)C(=O)O)o1` (configuration not stated), which AC50 is on record?
**A.** The AC50 was > 42 µM (inactive).

**Q.** For `Fc1ccc(-c2n[nH]c(=S)n2CC2CCCO2)cc1` (configuration not stated), which AC50 is on record?
**A.** Its AC50 is > 42 µM (inactive).

**Q.** Which AC50 does the source give for `Cc1cc(C(=O)N/N=C/c2ccc3c(c2)OCO3)c2ccccc2n1` here?
**A.** Its AC50 is > 42 µM (inactive).

**Q.** How did the AC50 turn out when `CN(C)c1ccc(C(CNS(=O)(=O)c2ccc([N+](=O)[O-])cc2)N2CCOCC2)cc1` (configuration not stated) was run?
**A.** Its AC50 is > 42 µM (inactive).

**Q.** `CC(=O)N1CC(=O)Nc2ccc(Cl)cc2C1c1ccccc1` (configuration not stated) was tested. Which AC50 did it give?
**A.** Its AC50 is > 42 µM (inactive).

**Q.** For `CCCCCC(=O)Nc1nnn(CCC)n1`, which AC50 is on record?
**A.** The AC50 was > 42 µM (inactive).

**Q.** With `CCn1ncc(Br)c1C(=O)Nc1ccc(OC(F)(F)F)cc1` as the molecule, how does the AC50 read?
**A.** Its AC50 is > 42 µM (inactive).

**Q.** With `N#CC(C#N)=C1C=CC=CN1/C(=C\c1ccccc1Cl)C(=O)c1ccccc1` as the molecule, how does the AC50 read?
**A.** The AC50 was > 42 µM (inactive).

**Q.** How did the AC50 turn out when `CCN(CC)C(=O)CSc1nnc(SCc2ccc(Cl)cc2)s1` was run?
**A.** The AC50 was > 42 µM (inactive).

**Q.** For `CC1=CC(C)(C)N2C(=O)C3(NCCc4c3[nH]c3ccccc43)c3cc(C)cc1c32` (configuration not stated), which AC50 is on record?
**A.** Its AC50 is > 42 µM (inactive).

**Q.** Which AC50 does the source give for `CCN(CC)CCNc1ncnc2c1[nH]c1ccc(OC)cc12` here?
**A.** The AC50 was > 42 µM (inactive).

**Q.** Which AC50 does the source give for `CCCc1ccc(S(=O)(=O)NCCc2ccncc2)cc1` here?
**A.** The AC50 was > 42 µM (inactive).

**Q.** `COc1ccc(/C=N/NC(=O)c2nnn(-c3nonc3N)c2-c2cccs2)cc1OC` was tested. Which AC50 did it give?
**A.** The AC50 was > 42 µM (inactive).

**Q.** How did the AC50 turn out when `Cc1c(C(=O)OCC(=O)Nc2ccc(S(N)(=O)=O)cc2)oc2c1ccc1ccccc12` was run?
**A.** The AC50 was > 42 µM (inactive).

**Q.** `COc1ccccc1NC(=O)N1CCN(C(=O)Nc2ccccc2OC)CC1` was tested. Which AC50 did it give?
**A.** Its AC50 is > 42 µM (inactive).

**Q.** Which AC50 does the source give for `CCn1nnc(-c2ccccc2NC(=O)c2cnccn2)n1` here?
**A.** Its AC50 is > 42 µM (inactive).

**Q.** Which AC50 does the source give for `Cc1ccc(S(=O)(=O)N[C@@H](Cc2ccccc2)C(=O)CCl)cc1` here?
**A.** The AC50 was > 42 µM (inactive).

**Q.** Which AC50 does the source give for `CCOc1ccc(C(=O)Nc2ccc(N3CCN(C)CC3)cc2)cc1[N+](=O)[O-]` here?
**A.** Its AC50 is > 42 µM (inactive).

**Q.** How did the AC50 turn out when `N#Cc1c(-c2ccco2)cc(-c2cccnc2)nc1N` was run?
**A.** The AC50 was > 42 µM (inactive).
